For experiment [1], the target named is T1, Uridylate kinase (Escherichia coli (strain K12)) (UniProt P0A7E9).
T1 sequence (whole entry): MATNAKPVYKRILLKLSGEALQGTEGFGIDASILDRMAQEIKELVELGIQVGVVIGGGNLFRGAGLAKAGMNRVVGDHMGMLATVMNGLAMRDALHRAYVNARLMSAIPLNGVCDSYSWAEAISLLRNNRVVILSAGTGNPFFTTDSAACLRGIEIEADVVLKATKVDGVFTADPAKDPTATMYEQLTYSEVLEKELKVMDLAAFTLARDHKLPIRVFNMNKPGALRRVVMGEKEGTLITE
Briefly: Inhibition of recombinant Escherichia coli UMP kinase pyrH catalyzed UMP phosphorylation in presence of GTP and ATP incubated for 1 hr by luminescence based assay.

Experiment [2] concerns the target T2, Nucleoside diphosphate phosphatase ENTPD5 (Homo sapiens) (UniProt O75356).
T2 sequence (whole entry): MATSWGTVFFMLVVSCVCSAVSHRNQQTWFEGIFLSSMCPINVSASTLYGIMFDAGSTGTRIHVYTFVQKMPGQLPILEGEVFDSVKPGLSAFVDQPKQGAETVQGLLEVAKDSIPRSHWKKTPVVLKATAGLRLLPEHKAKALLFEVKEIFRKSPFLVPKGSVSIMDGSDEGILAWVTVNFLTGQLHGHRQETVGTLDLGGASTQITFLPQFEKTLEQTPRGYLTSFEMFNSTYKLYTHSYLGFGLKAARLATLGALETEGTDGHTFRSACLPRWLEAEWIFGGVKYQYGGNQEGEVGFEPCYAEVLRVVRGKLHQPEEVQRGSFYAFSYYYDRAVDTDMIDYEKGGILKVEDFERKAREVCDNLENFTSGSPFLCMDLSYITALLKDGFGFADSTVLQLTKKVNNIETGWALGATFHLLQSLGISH
Briefly: Inhibition of human recombinant ENTPD5 expressed in insect cells assessed as reduction in UDP hydrolysis at 1 uM incubated for 1 hr in presence of UMP, GTP and ATP by Escherichia coli UMP kinase pyrH catalyzed UMP phosphorylation coupled luciferase assay.

In experiment [3] the target is T2, Nucleoside diphosphate phosphatase ENTPD5 (Homo sapiens). Briefly: Inhibition of human recombinant ENTPD5 expressed in insect cells assessed as reduction in UDP hydrolysis up to 10 uM incubated for 1 hr in presence of UMP, GTP and ATP by Escherichia coli UMP kinase pyrH catalyzed UMP phosphorylation coupled luciferase assay.
For experiment [4] the target is unchanged. Briefly: Inhibition of human recombinant ENTPD5 expressed in insect cells assessed as reduction in reduction in UDP hydrolysis by measuring inorganic phosphate release incubated for 1 hr by malachite green based assay.

The source made the active and inactive calls. How the calls were made is not given here.

Turning to `CCC(C)(C)C1CCc2c(sc(NC(=O)c3ccoc3C)c2C(N)=O)C1` (centres undefined), the inhibition entry in experiment [1] is “inactive”. Besides, the inhibition entry in experiment [2] and in experiment [4] was “Active” each time. Moreover, the inhibition entry in experiment [3] is “Dose-dependent effect”.
As to `CC(=O)c1ccc(-c2ccc(/C=C3\C(=O)NC(=S)N(c4ccc(Br)cc4)C3=O)o2)cc1`, the inhibition entry in experiment [1] was “inactive”. The inhibition entry in experiment [2] and in experiment [4] was “Active” throughout. The inhibition result in experiment [3] was “Dose-dependent effect”.
Turning to `Cc1ccc(-c2cc(C(F)(F)F)c3c(N)c(C(=O)c4ccc5c(c4)OCO5)sc3c2)s1`, in experiment [1], the inhibition entry is “inactive”. Also, the inhibition entry in experiment [2] and in experiment [4] was “Active” throughout. For the same compound, in experiment [3], the inhibition entry is “Dose-dependent effect”.
In the case of `O=C1NC(=S)NC(=O)C1=Cc1cn(-c2ccccc2)nc1-c1cc2c(ccc3ccccc32)oc1=O`, the inhibition entry in experiment [1] was “inactive”. Further, the inhibition entry in experiment [2] and in experiment [4] was “Active” in each case. Besides, the inhibition result in experiment [3] is “Dose-dependent effect”.
Turning to `COc1ccc(OC)c(-c2cn3c(CCN(Cc4ccco4)S(=O)(=O)c4ccc5ccccc5c4)csc3n2)c1`, in experiment [1], the inhibition result is “inactive”. The inhibition result in experiment [2] and in experiment [4] was “Active” throughout. Besides, in experiment [3], the inhibition result was “Dose-dependent effect”.
With `Cc1ccc2ncc(C(CC(=O)N3CCN(C(c4ccccc4)c4ccccc4)CC3)c3ccc4c(c3)OCO4)n2c1` (centres undefined), in experiment [1], the inhibition result is “inactive”. Moreover, the inhibition result in experiment [2] and in experiment [4] was “Active” in each case. Moreover, the inhibition entry in experiment [3] was “Dose-dependent effect”.
`O=C1NC(=O)N(c2ccc(Br)cc2)C(=O)/C1=C/c1c[nH]c2ccccc12`: the inhibition result in experiment [1] is “inactive”. The inhibition result in experiment [2] and in experiment [4] was “Active” in each case. Besides, in experiment [3], the inhibition result is “Dose-dependent effect”.
For the compound `Cc1cccc(Oc2ccc(N3C(=O)C=CC3=O)cc2)c1C`, the inhibition entry in experiment [1] was “inactive”. In addition, the inhibition entry in experiment [2] and in experiment [4] was “Active” in each case. Further, the inhibition entry in experiment [3] is “Dose-dependent effect”.
`Cc1ccnc(NC(c2ccc3cccnc3c2O)c2sccc2C)c1` (centres undefined): the inhibition entry in experiment [1] was “inactive”. Besides, the inhibition entry in experiment [2] and in experiment [4] was “Active” throughout. Moreover, the inhibition result in experiment [3] is “Dose-dependent effect”.
In the case of `S=C(NCc1ccccc1)Nc1ccc2nc(-c3ccco3)c(-c3ccco3)nc2c1`, the inhibition result in experiment [1] was “inactive”. For the same compound, the inhibition entry in experiment [2] and in experiment [4] was “Active” each time. Besides, the inhibition entry in experiment [3] was “Dose-dependent effect”.
Regarding `Cc1ccc(CNC(=O)c2cc(-c3ccc(Br)s3)nc3ccccc23)o1`, the inhibition entry in experiment [1] is “inactive”. Besides, the inhibition result in experiment [2] and in experiment [4] was “Active” in each case. Further, in experiment [3], the inhibition entry was “Dose-dependent effect”.
Consider `COc1ccc(/C=C2\SC(=S)N(CCCC(=O)NNC(=O)c3ccccc3O)C2=O)cc1`, for which the inhibition entry in experiment [1] is “inactive”. The inhibition result in experiment [2] and in experiment [4] was “Active” each time. Further, the inhibition result in experiment [3] is “Dose-dependent effect”.
For the compound `O=C1NC(=O)C(=Cc2cn(-c3ccccc3)nc2-c2ccc(F)cc2)C(=O)N1`, the inhibition result in experiment [1] was “inactive”. For the same compound, the inhibition result in experiment [2] and in experiment [4] was “Active” in each case. In experiment [3], the inhibition entry is “Dose-dependent effect”.
In the case of `O=C(/C=C/c1ccco1)/C=C/c1ccc(-c2ccc(Br)cc2)o1`, the inhibition result in experiment [1] is “inactive”. Moreover, the inhibition result in experiment [2] and in experiment [4] was “Active” each time. Moreover, in experiment [3], the inhibition entry is “Dose-dependent effect”.
For `O=C(Nc1ccc(Oc2ccc(NC(=O)c3cccs3)cc2)cc1)c1cccs1`, the inhibition result in experiment [1] is “inactive”. The inhibition result in experiment [2] and in experiment [4] was “Active” throughout. Besides, the inhibition result in experiment [3] was “Dose-dependent effect”.
Take `O=C1OC(c2ccccc2)OC(=O)C1=Cc1ccc(-c2cccc(Br)c2)o1` (centres undefined): the inhibition result in experiment [1] was “inactive”. Besides, the inhibition entry in experiment [2] and in experiment [4] was “Active” in each case. Besides, the inhibition result in experiment [3] was “Dose-dependent effect”.
Turning to `O=C1NC(=O)N(Cc2ccco2)C(=O)/C1=C\c1ccc(-c2ccc(Cl)c([N+](=O)[O-])c2)o1`, the inhibition result in experiment [1] is “inactive”. Besides, the inhibition entry in experiment [2] and in experiment [4] was “Active” in each case. The inhibition entry in experiment [3] was “Dose-dependent effect”.
Turning to `Cc1nn2cc(-c3ccccc3)cc2c2c(C)n(C)c(C)c12`, in experiment [1], the inhibition result is “inactive”. The inhibition entry in experiment [2] and in experiment [4] was “Active” each time. The inhibition entry in experiment [3] is “Dose-dependent effect”.
Take `CC(C)(C)c1cc(CN(CCO)CCO)cc(C(C)(C)C)c1O`: the inhibition entry in experiment [1] was “inactive”. Also, the inhibition result in experiment [2] and in experiment [4] was “Active” in each case. In experiment [3], the inhibition result was “Dose-dependent effect”.
In the case of `O=C(c1ccc2c(c1)C1C=CCC1C(c1ccc(Br)cc1)N2)N1CCCCCC1` (centres undefined), the inhibition entry in experiment [1] is “inactive”. Also, the inhibition result in experiment [2] and in experiment [4] was “Active” each time. In addition, in experiment [3], the inhibition entry was “Dose-dependent effect”.
Take `O=C1/C(=C/c2ccc(-c3cccc(C(F)(F)F)c3)o2)SC(=S)N1Cc1ccco1`: in experiment [1], the inhibition result is “inactive”. Also, the inhibition entry in experiment [2] and in experiment [4] was “Active” throughout. Also, the inhibition entry in experiment [3] was “Dose-dependent effect”.
Take `O=C(Cn1cc(/C=C2\C(=O)NC(=O)N(Cc3ccccc3)C2=O)c2ccccc21)NCc1ccccc1`: the inhibition entry in experiment [1] is “inactive”. Further, the inhibition entry in experiment [2] and in experiment [4] was “Active” throughout. Further, the inhibition result in experiment [3] was “Dose-dependent effect”.
Consider `O=C1Nc2ccc(Br)cc2/C1=C1/SC(=S)N(c2ccc(Cl)cc2)C1=O`, for which the inhibition entry in experiment [1] is “inactive”. Also, the inhibition result in experiment [2] and in experiment [4] was “Active” in each case. Further, the inhibition entry in experiment [3] is “Dose-dependent effect”.
On to `O=C1/C(=C/c2cc([N+](=O)[O-])cc(Br)c2O)SC(=S)N1c1ccc([N+](=O)[O-])cc1`, for which the inhibition entry in experiment [1] is “inactive”. Further, the inhibition result in experiment [2] and in experiment [4] was “Active” each time. In addition, in experiment [3], the inhibition result is “Dose-dependent effect”.
As for `O=C(CSc1nc2c([nH]c3ccccc32)c(=O)n1-c1ccccc1)N1CCN(c2ccccc2)CC1`, the inhibition entry in experiment [1] is “inactive”. For the same compound, the inhibition result in experiment [2] and in experiment [4] was “Active” in each case. Moreover, the inhibition result in experiment [3] is “Dose-dependent effect”.
As to `Cn1cc(C(c2ccc(O)c(O)c2O)c2cn(C)c3ccccc23)c2ccccc21`, the inhibition entry in experiment [1] is “inactive”. For the same compound, the inhibition result in experiment [2] and in experiment [4] was “Active” in each case. Besides, the inhibition result in experiment [3] is “Dose-dependent effect”.
For the compound `O=C(Cn1cc(/C=C2/C(=O)NC(=O)N(c3ccc4c(c3)OCO4)C2=O)c2ccccc21)Nc1ccccc1`, the inhibition result in experiment [1] was “inactive”. For the same compound, the inhibition result in experiment [2] and in experiment [4] was “Active” throughout. The inhibition result in experiment [3] was “Dose-dependent effect”.
`COC(=O)c1cccc2c1NC(c1ccc([N+](=O)[O-])cc1)C1CC=CC21` (centres undefined): the inhibition result in experiment [1] is “inactive”. For the same compound, the inhibition result in experiment [2] and in experiment [4] was “Active” throughout. Also, in experiment [3], the inhibition result was “Dose-dependent effect”.
In the case of `O=C1C=CC(Br)=C/C1=C/NNC(=O)c1cc2ccccc2cc1O`, in experiment [1], the inhibition entry was “inactive”. In addition, the inhibition result in experiment [2] and in experiment [4] was “Active” throughout. Further, the inhibition entry in experiment [3] was “Dose-dependent effect”.
On to `O=C(O)c1cccc(N2N=C(C(F)(F)F)/C(=C/c3ccc(-c4ccc(S(=O)(=O)Nc5nccs5)cc4)o3)C2=O)c1`, for which, in experiment [1], the inhibition entry is “inactive”. Also, the inhibition result in experiment [2] and in experiment [4] was “Active” throughout. Besides, the inhibition result in experiment [3] is “Dose-dependent effect”.
As to `O=C(c1ccc(C(F)(F)F)cc1)N(CCc1csc2nc(-c3ccc4ccccc4c3)cn12)Cc1ccco1`, the inhibition entry in experiment [1] is “inactive”. Further, the inhibition result in experiment [2] and in experiment [4] was “Active” each time. Also, the inhibition entry in experiment [3] is “Dose-dependent effect”.

The values above are taken from ChEMBL document CHEMBL4418495, “Entpd5 inhibitors” (2012).
